Columns and labels:
[1] = target: T1, NK2 (Cavia porcellus, UniProt Q64077); experiment: Guinea Pig Trachea Assay: NK2 in vitro functional assay (Test D); format: cell-based; settings: -log molar KB against agonist BANK
T1 construct: The trachea are removed, trimmed of excess tissue (including removal of epithelium) and cut in spiral fashion; from tissue; host or cells: guinea pig trachea strips
T1 sequence (Q64077 1-402): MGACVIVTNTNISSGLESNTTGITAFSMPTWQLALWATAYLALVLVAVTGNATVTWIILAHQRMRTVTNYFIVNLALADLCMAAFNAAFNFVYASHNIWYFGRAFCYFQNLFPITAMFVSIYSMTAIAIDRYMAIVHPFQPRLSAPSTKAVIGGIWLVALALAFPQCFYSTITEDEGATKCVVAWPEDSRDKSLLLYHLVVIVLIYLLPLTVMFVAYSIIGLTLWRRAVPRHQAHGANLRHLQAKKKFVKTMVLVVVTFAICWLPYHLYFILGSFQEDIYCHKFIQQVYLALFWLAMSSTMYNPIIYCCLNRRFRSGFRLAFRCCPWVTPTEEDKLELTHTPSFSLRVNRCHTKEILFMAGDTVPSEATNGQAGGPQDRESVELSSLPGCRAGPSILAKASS
Experimental: Guinea Pig Trachea Assay: NK2 in vitro functional assay (Test D)
Male guinea pigs are killed by a sharp blow to the back of the head followed by exsanguination. The trachea are removed, trimmed of excess tissue (including removal of epithelium) and cut in spiral fashion. Each longitudinally cut tracheal segment is suspended as a strip in a water-jacketed (37.5°C) tissue bath containing a physiological salt solution of the following composition (mM): NaCl, 119; KCl 4.6; CaCl2, 1.8; MgCl2, 0.5; NaH2PO4, 1; NaHCO3, 25; glucose, 11; and indomethacin, 0.005 (to inhibit cyclooxygenase); gassed continuously with 95% O2-%5 CO2. […] Contractile responses are measured on a Grass polygraph via Grass FT-03 force transducers. […]
Potencies of the compounds are evaluated by calculating apparent dissociation constants (KB) for each concentration tested using the standard equation: KB = [antagonist]/(dose ratio-1) [formula] where dose ratio = antilog[(agonist -log molar EC50 without compound) - (agonist-log molar EC50 with compound)]. The KB values are converted to the negative logarithms and expressed as -log molar KB (i.e. pKB). […] The EC50 values are converted to the negative logarithms and expressed as -log molar EC50. Maximum contractile responses to BANK are determined by expressing the maximum response to BANK as a percentage of the initial contraction caused by capasacin.

[2] = target: T2, human NK1 receptor (Homo sapiens, UniProt P25103); experiment: SP Receptor Binding Assay (Test A); settings: binding of SP at human NK1 receptor expressed in MEL cells
T2 construct: expressed in transfected cells; host or cells: Mouse Erythroleukemia (MEL) cells
Description: SP Receptor Binding Assay (Test A)
The human NK1 receptor was isolated and characterized as described in: B. Hopkins, et al. "Isolation and characterization of the human lung NK1 receptor cDNA" Biochem. Biophys. Res. Comm., 1991, 180, 1110-1117; and the NK1 receptor was expressed in Mouse Erythroleukemia (MEL) cells using a procedure similar to that described in Test B below.

[3] = target: T3, human NK2 receptor (Homo sapiens, UniProt P21452)
T3 sequence (P21452 1-398): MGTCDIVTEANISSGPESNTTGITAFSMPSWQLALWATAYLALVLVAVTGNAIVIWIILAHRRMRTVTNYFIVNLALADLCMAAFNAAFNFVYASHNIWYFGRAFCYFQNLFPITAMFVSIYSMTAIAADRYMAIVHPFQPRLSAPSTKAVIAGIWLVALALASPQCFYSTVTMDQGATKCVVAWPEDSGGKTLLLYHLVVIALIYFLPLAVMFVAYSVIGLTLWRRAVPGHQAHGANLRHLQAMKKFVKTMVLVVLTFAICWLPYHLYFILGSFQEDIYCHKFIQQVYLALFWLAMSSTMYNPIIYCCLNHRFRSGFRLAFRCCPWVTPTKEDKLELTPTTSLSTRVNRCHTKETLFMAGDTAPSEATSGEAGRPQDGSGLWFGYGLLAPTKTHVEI

[4] = target: NK1 receptor (Oryctolagus cuniculus, UniProt G1SEI7); experiment: Rabbit Pulmonary Artery: NK1 in vitro functional assay (Test C); format: cell-based; settings: -log molar KB against agonist ASMSP
Experimental: Rabbit Pulmonary Artery: NK1 in vitro functional assay (Test C)
Male New Zealand white rabbits are killed by lethal injection (Nembutal, 60 mg/kg into a cannulated ear vein). Heparin, 0.0025 ml/kg of a 1000 U/ml solution, is injected into the ear vein prior to nembutal in order to decrease blood coagulation. The left and right branches of the pulmonary artery are isolated from the rest of the lung tissue and cut in half to provide four ring segments from each animal. […] Changes in tension are measured on a Grass polygraph via Grass FT-03 force transducers. […]
Potencies of the compounds are determined by calculating the apparent dissociation constants (KB) for each concentration tested using the standard equation: KB = [antagonist]/(dose ratio - 1) [formula] where dose ratio = antilog[(agonist-log molar EC50 without compound) - (agonist-log molar EC50 with compound)]. The KB values are converted to the negative logarithms and expressed as -log molar KB (i.e. pKB). […] The EC50 values are converted to negative logarithms and expressed as -log molar EC50. Maximum relaxation responses to ASMSP are determined by expressing the maximum response to the agonist as a percentage of the relaxation caused by papaverine.

T2 sequence (P25103 whole entry): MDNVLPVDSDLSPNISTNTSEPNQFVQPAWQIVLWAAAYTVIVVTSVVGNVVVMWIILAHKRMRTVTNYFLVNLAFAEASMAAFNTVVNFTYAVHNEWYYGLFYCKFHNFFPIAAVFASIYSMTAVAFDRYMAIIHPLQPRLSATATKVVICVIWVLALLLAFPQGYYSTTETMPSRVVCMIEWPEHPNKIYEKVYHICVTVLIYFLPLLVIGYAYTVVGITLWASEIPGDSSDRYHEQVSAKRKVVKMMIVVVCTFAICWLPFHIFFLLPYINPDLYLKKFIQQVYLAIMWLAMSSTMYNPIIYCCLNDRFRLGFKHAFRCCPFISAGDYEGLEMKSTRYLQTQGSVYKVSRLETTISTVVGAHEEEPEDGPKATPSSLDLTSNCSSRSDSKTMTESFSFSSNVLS
Sequence of NK1 receptor (G1SEI7 1-407): as the sequence (P25103 whole entry) above, with S12F, N189D, P369A, D371E, T376N, C386G, D391N, S402Y, V405M counted along it

SMILES: O=C(CC(CCN1CCC(O)(c2ccccc2)CC1)c1ccc(Cl)c(Cl)c1)NCc1ccccc1 (stereo not shown) [Example 1, N-Benzyl-5-(4-hydroxy-4-phenylpiperidino)-3-(3,4-dichlorophenyl)pentanamide]
- Kb [1]: 794 nM
- Ki [2]: 30 nM
- Ki [3]: 15 nM
- pKB [4]: 5.41

From EP0808303B1, “5-(4-SUBST.-PIPERIDINYL-1)-3-ARYL-PENTANOIC ACID DERIVATIVES AS TACHYKININ RECEPTOR ANTAGONIST” (AstraZeneca AB, priority 1995, dated 1996)
